From the NIST ThermoML archive (doi:10.1016/j.jct.2018.02.022)
Numbers after ± are expanded uncertainties.

Assay: xn = mol fraction of the nth substance listed
Conditions: 308.15 K, 92.3 kPa, Liquid; for viscosity: Concentric cylinders viscometry; for speed of sound: Frequency=3 MHz, Single path-length method; for mass density: Vibrating tube method

OCCOCCOCCO [triethylene glycol] + O
Conditions	mass density [kg/m3]	speed of sound [m/s]	viscosity [mPa·s]
x1 = 0.0101	1005.03 ± 3.2	1554.2 ± 1.8	–
x1 = 0.0196	1014.27 ± 3.2	1582.2 ± 1.8	–
x1 = 0.025	1019.05 ± 3.2	–	1.265 ± 0.18
x1 = 0.029	1022.86 ± 3.2	1606.8 ± 1.8	–
x1 = 0.0381	1030.16 ± 3.2	1627 ± 1.8	–
x1 = 0.0489	1037.64 ± 3.2	–	1.865 ± 0.26
x1 = 0.0496	1038.52 ± 3.2	1648.6 ± 1.8	–
x1 = 0.0601	1045.38 ± 3.3	1664.8 ± 1.8	–
x1 = 0.0689	1050.48 ± 3.3	1675.8 ± 1.8	–
x1 = 0.0754	1053.78 ± 3.3	–	2.68 ± 0.38
x1 = 0.0801	1056.32 ± 3.3	1687 ± 1.8	–
x1 = 0.0905	1061.17 ± 3.3	1695 ± 1.8	–
x1 = 0.0993	1065.07 ± 3.3	–	3.561 ± 0.5
x1 = 0.0996	1065.01 ± 3.3	1700.4 ± 1.8	–
x1 = 0.1479	1080.2 ± 3.3	1710.8 ± 1.8	–
x1 = 0.15	1081.49 ± 3.3	–	5.617 ± 0.79
x1 = 0.1993	1090.78 ± 3.3	–	7.962 ± 1.1
x1 = 0.2004	1090.24 ± 3.3	1703.7 ± 1.8	–
x1 = 0.2462	1095.85 ± 3.3	1691.9 ± 1.8	–
x1 = 0.2526	1096.6 ± 3.3	–	10.33 ± 1.4
x1 = 0.2998	1099.82 ± 3.3	–	12.25 ± 1.7
x1 = 0.3004	1100.16 ± 3.3	1676.8 ± 1.8	–
x1 = 0.3474	1102.74 ± 3.3	1664.2 ± 1.8	–
x1 = 0.3539	1102.46 ± 3.3	–	14.19 ± 2
x1 = 0.3948	1104.64 ± 3.3	1652.5 ± 1.9	–
x1 = 0.4009	1104.33 ± 3.3	–	15.72 ± 2.2
x1 = 0.4467	1106.18 ± 3.3	1641.2 ± 1.9	–
x1 = 0.4492	1106.02 ± 3.3	–	17.03 ± 2.4
x1 = 0.4992	1107.51 ± 3.3	–	18.22 ± 2.6
x1 = 0.5021	1107.42 ± 3.3	1630.7 ± 1.9	–
x1 = 0.548	1108.22 ± 3.3	1623.2 ± 1.9	–
x1 = 0.5484	1108.65 ± 3.3	–	19.23 ± 2.7
x1 = 0.5923	1108.87 ± 3.3	1616.6 ± 1.9	–
x1 = 0.5996	1109.45 ± 3.3	–	20.07 ± 2.8
x1 = 0.6442	1109.46 ± 3.3	1610.1 ± 1.9	–
x1 = 0.6506	1109.87 ± 3.3	–	20.77 ± 2.9
x1 = 0.701	1110.02 ± 3.3	–	21.48 ± 3
x1 = 0.7095	1110.08 ± 3.3	1603.2 ± 1.9	–
x1 = 0.7531	1110.43 ± 3.3	1598.8 ± 1.9	–
x1 = 0.7567	1110.11 ± 3.3	–	22.1 ± 3.1
x1 = 0.7859	1110.68 ± 3.3	1595.9 ± 2	–
x1 = 0.8035	1110.31 ± 3.3	–	22.51 ± 3.2
x1 = 0.8387	1111 ± 3.3	1591.9 ± 2	–
x1 = 0.8406	1110.64 ± 3.3	–	22.83 ± 3.2
x1 = 0.8981	1111.39 ± 3.3	–	23.14 ± 3.2
x1 = 0.9031	1111.37 ± 3.3	1587.2 ± 2	–
x1 = 0.9181	1111.42 ± 3.3	1586.5 ± 2	–
x1 = 0.9344	1111.52 ± 3.3	1585.5 ± 2	–
x1 = 0.9489	1111.91 ± 3.3	–	23.46 ± 3.3
x1 = 0.9569	1111.62 ± 3.3	1584.2 ± 2	–
x1 = 0.9782	1111.71 ± 3.3	1583 ± 2	–
x1 = 1	1111.81 ± 3	1581.7 ± 2	23.72 ± 3.3
